PubChem BioAssay (NCI)
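Here, GI50 denotes the concentration required for 50% inhibition of growth. TGI: concentration producing complete growth inhibition.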

How the values were obtained:
Assay in all cases: DTP human tumour cell line panel, 384-well format
786-0 renal = test system: 786-0 renal
A498 renal = test system: A498 renal
ACHN renal = test system: ACHN renal
BT-549 breast = test system: BT-549 breast
CAKI-1 renal = test system: CAKI-1 renal
CCRF-CEM leukemia = test system: CCRF-CEM leukemia
COLO 205 colon = test system: COLO 205 colon
DU-145 prostate = test system: DU-145 prostate
EKVX NSCLC = test system: EKVX NSCLC
HCC-2998 colon = test system: HCC-2998 colon
HCT-116 colon = test system: HCT-116 colon
HCT-15 colon = test system: HCT-15 colon
HOP-62 NSCLC = test system: HOP-62 NSCLC
HOP-92 NSCLC = test system: HOP-92 NSCLC
HS 578T breast = test system: HS 578T breast
HT29 colon = test system: HT29 colon
IGROV1 ovarian = test system: IGROV1 ovarian
K-562 leukemia = test system: K-562 leukemia
KM12 colon = test system: KM12 colon
LOX IMVI melanoma = test system: LOX IMVI melanoma
M14 melanoma = test system: M14 melanoma
MALME-3M melanoma = test system: MALME-3M melanoma
MCF7 breast = test system: MCF7 breast
MDA-MB-231 breast = test system: MDA-MB-231 breast
MDA-MB-435 melanoma = test system: MDA-MB-435 melanoma
MDA-MB-468 breast = test system: MDA-MB-468 breast
MOLT-4 leukemia = test system: MOLT-4 leukemia
NCI-H226 lung = test system: NCI-H226 lung
NCI-H23 lung = test system: NCI-H23 lung
NCI-H322M lung = test system: NCI-H322M lung
NCI-H460 NSCLC = test system: NCI-H460 NSCLC
NCI/ADR-RES ovarian = test system: NCI/ADR-RES ovarian
OVCAR-3 ovarian = test system: OVCAR-3 ovarian
OVCAR-4 ovarian = test system: OVCAR-4 ovarian
OVCAR-5 ovarian = test system: OVCAR-5 ovarian
OVCAR-8 ovarian = test system: OVCAR-8 ovarian
PC-3 prostate = test system: PC-3 prostate
RPMI-8226 leukemia = test system: RPMI-8226 leukemia
RXF 393 renal = test system: RXF 393 renal
SF-268 CNS = test system: SF-268 CNS
SF-295 CNS = test system: SF-295 CNS
SF-539 CNS = test system: SF-539 CNS
SK-MEL-28 melanoma = test system: SK-MEL-28 melanoma
SK-MEL-5 melanoma = test system: SK-MEL-5 melanoma
SK-OV-3 ovarian = test system: SK-OV-3 ovarian
SN12C renal = test system: SN12C renal
SNB-19 CNS = test system: SNB-19 CNS
SNB-75 CNS = test system: SNB-75 CNS
SW-620 colon = test system: SW-620 colon
TK-10 renal = test system: TK-10 renal
U251 glioblastoma = test system: U251 glioblastoma
UACC-257 melanoma = test system: UACC-257 melanoma
UACC-62 melanoma = test system: UACC-62 melanoma
UO-31 renal = test system: UO-31 renal
A549 NSCLC = test system: A549 NSCLC
HL-60(TB) leukemia = test system: HL-60(TB) leukemia
NCI-H522 lung = test system: NCI-H522 lung
SK-MEL-2 melanoma = test system: SK-MEL-2 melanoma
SR leukemia = test system: SR leukemia
T-47D breast = test system: T-47D breast

## CCN(CCO)CCCOc1ccc2c(Nc3cc(CC(=O)Nc4cccc(F)c4)[nH]n3)ncnc2c1
786-0 renal
  GI50: 16 µM
  TGI: 31.7 µM
A498 renal
  GI50: 29.8 µM
  TGI: > 100 µM
ACHN renal
  GI50: > 100 µM
  TGI: > 100 µM
BT-549 breast
  GI50: 12 µM
  TGI: 24.4 µM
CAKI-1 renal
  GI50: 11.7 µM
  TGI: 26.4 µM
CCRF-CEM leukemia
  GI50: < 0.01 µM
COLO 205 colon
  GI50: 0.0236 µM
  TGI: 0.0915 µM
DU-145 prostate
  GI50: 27.7 µM
  TGI: 92 µM
EKVX NSCLC
  GI50: 14 µM
  TGI: 41.7 µM
HCC-2998 colon
  GI50: 12.8 µM
  TGI: 25.4 µM
HCT-116 colon
  GI50: 8.43 µM
  TGI: 21.4 µM
HCT-15 colon
  GI50: > 100 µM
  TGI: > 100 µM
HOP-62 NSCLC
  GI50: 11.7 µM
  TGI: 24.1 µM
HOP-92 NSCLC
  GI50: 8.99 µM
  TGI: 21.2 µM
HS 578T breast
  GI50: 0.0205 µM
  TGI: 18.5 µM
HT29 colon
  GI50: 13.2 µM
  TGI: 26.2 µM
IGROV1 ovarian
  GI50: 11.6 µM
  TGI: 24.9 µM
K-562 leukemia
  GI50: 10.1 µM
  TGI: 22.7 µM
KM12 colon
  GI50: 3.46 µM
  TGI: 14.6 µM
LOX IMVI melanoma
  GI50: 10.2 µM
  TGI: 21.8 µM
M14 melanoma
  GI50: 13.3 µM
  TGI: 26.6 µM
MALME-3M melanoma
  GI50: 11.3 µM
  TGI: 23.4 µM
MCF7 breast
  GI50: 2.69 µM
  TGI: 18.2 µM
MDA-MB-231 breast
  GI50: 12 µM
  TGI: 24.5 µM
MDA-MB-435 melanoma
  GI50: 13.4 µM
  TGI: 26.3 µM
MDA-MB-468 breast
  GI50: 0.0155 µM
  TGI: 4.03 µM
MOLT-4 leukemia
  GI50: < 0.01 µM
NCI-H226 lung
  GI50: 14.4 µM
  TGI: 36.4 µM
NCI-H23 lung
  GI50: 11.8 µM
  TGI: 25.1 µM
NCI-H322M lung
  GI50: 16.2 µM
  TGI: 38.5 µM
NCI-H460 NSCLC
  GI50: 0.0403 µM
  TGI: 16.9 µM
NCI/ADR-RES ovarian
  GI50: > 100 µM
  TGI: > 100 µM
OVCAR-3 ovarian
  GI50: 1.63 µM
  TGI: 14.7 µM
OVCAR-4 ovarian
  GI50: 12.2 µM
  TGI: 26.5 µM
OVCAR-5 ovarian
  GI50: 18.1 µM
  TGI: 51.2 µM
OVCAR-8 ovarian
  GI50: 14.7 µM
  TGI: 28.9 µM
PC-3 prostate
  GI50: 15.1 µM
  TGI: 28.6 µM
RPMI-8226 leukemia
  GI50: 7.83 µM
  TGI: 21.2 µM
RXF 393 renal
  GI50: 0.0465 µM
  TGI: 20.6 µM
SF-268 CNS
  GI50: < 0.01 µM
  TGI: 4.6 µM
SF-295 CNS
  GI50: 13.8 µM
  TGI: 29.2 µM
SF-539 CNS
  GI50: 2.31 µM
  TGI: 19.1 µM
SK-MEL-28 melanoma
  GI50: 15.5 µM
  TGI: 29 µM
SK-MEL-5 melanoma
  GI50: 11.4 µM
  TGI: 24.8 µM
SK-OV-3 ovarian
  GI50: 9.32 µM
  TGI: 21.4 µM
SN12C renal
  GI50: 10.8 µM
  TGI: 23.4 µM
SNB-19 CNS
  GI50: 11.7 µM
  TGI: 24.1 µM
SNB-75 CNS
  GI50: 15.1 µM
  TGI: 28.4 µM
SW-620 colon
  GI50: 13.7 µM
  TGI: 28.9 µM
TK-10 renal
  GI50: 32.5 µM
  TGI: > 100 µM
U251 glioblastoma
  GI50: 12 µM
  TGI: 24.4 µM
UACC-257 melanoma
  GI50: 14.7 µM
  TGI: 27.9 µM
UACC-62 melanoma
  GI50: 13.9 µM
  TGI: 26.9 µM
UO-31 renal
  GI50: > 100 µM
  TGI: > 100 µM

## N[C@@H](CSSC[C@H](N)C(=O)N1CCn2cc(-c3ccccc3)nc2[C@@H]1CC1CCCCC1)C(=O)N1CCn2cc(-c3ccccc3)nc2[C@@H]1CC1CCCCC1
786-0 renal
  GI50: 1.51 µM
  TGI: 2.93 µM
A498 renal
  GI50: 1.63 µM
  TGI: 3 µM
A549 NSCLC
  GI50: 1.26 µM
  TGI: 2.53 µM
ACHN renal
  GI50: 1.95 µM
  TGI: 3.39 µM
BT-549 breast
  GI50: 1.84 µM
  TGI: 3.25 µM
CAKI-1 renal
  GI50: 1.93 µM
  TGI: 3.56 µM
CCRF-CEM leukemia
  GI50: 0.294 µM
  TGI: 1.27 µM
COLO 205 colon
  GI50: 1.39 µM
  TGI: 2.7 µM
DU-145 prostate
  GI50: 1.85 µM
  TGI: 6.34 µM
HCC-2998 colon
  GI50: 1.7 µM
  TGI: 3.08 µM
HCT-116 colon
  GI50: 0.215 µM
  TGI: 0.49 µM
HCT-15 colon
  GI50: 1.58 µM
  TGI: 2.93 µM
HL-60(TB) leukemia
  GI50: 0.796 µM
  TGI: 1.99 µM
HOP-62 NSCLC
  GI50: 1.25 µM
  TGI: 2.53 µM
HOP-92 NSCLC
  GI50: 1.98 µM
  TGI: 3.44 µM
HT29 colon
  GI50: 1.47 µM
  TGI: 2.84 µM
IGROV1 ovarian
  GI50: 1.6 µM
  TGI: 3.31 µM
K-562 leukemia
  GI50: 0.551 µM
  TGI: 1.74 µM
KM12 colon
  GI50: 0.312 µM
  TGI: 1.55 µM
LOX IMVI melanoma
  GI50: 1.33 µM
  TGI: 2.62 µM
M14 melanoma
  GI50: 0.146 µM
  TGI: 0.355 µM
MALME-3M melanoma
  GI50: 1.14 µM
  TGI: 2.36 µM
MCF7 breast
  GI50: 1.46 µM
  TGI: 2.79 µM
MDA-MB-231 breast
  GI50: 1.63 µM
  TGI: 2.99 µM
MDA-MB-435 melanoma
  GI50: 0.677 µM
  TGI: 1.93 µM
MDA-MB-468 breast
  GI50: 1.08 µM
  TGI: 2.28 µM
MOLT-4 leukemia
  GI50: 0.14 µM
  TGI: 0.271 µM
NCI-H226 lung
  GI50: 1.82 µM
  TGI: 3.26 µM
NCI-H23 lung
  GI50: 2.12 µM
  TGI: 4.21 µM
NCI-H322M lung
  GI50: 2.47 µM
  TGI: 5.64 µM
NCI-H460 NSCLC
  GI50: 0.288 µM
  TGI: 1.59 µM
NCI-H522 lung
  GI50: 1.61 µM
  TGI: 2.97 µM
NCI/ADR-RES ovarian
  GI50: 2.35 µM
  TGI: 5.41 µM
OVCAR-3 ovarian
  GI50: 1.1 µM
  TGI: 2.31 µM
OVCAR-4 ovarian
  GI50: 1.94 µM
  TGI: 3.38 µM
OVCAR-5 ovarian
  GI50: 1.71 µM
  TGI: 3.15 µM
OVCAR-8 ovarian
  GI50: 1.62 µM
  TGI: 2.98 µM
PC-3 prostate
  GI50: 1.83 µM
  TGI: 3.26 µM
RXF 393 renal
  TGI: 1.09 µM
SF-268 CNS
  GI50: 0.283 µM
  TGI: 1.16 µM
SF-295 CNS
  GI50: 1.94 µM
  TGI: 3.36 µM
SF-539 CNS
  GI50: 1.72 µM
  TGI: 3.1 µM
SK-MEL-2 melanoma
  GI50: 0.184 µM
  TGI: 0.524 µM
SK-MEL-28 melanoma
  GI50: 0.146 µM
  TGI: 1.03 µM
SK-MEL-5 melanoma
  GI50: 0.194 µM
  TGI: 1.3 µM
SK-OV-3 ovarian
  GI50: 0.242 µM
  TGI: 1.8 µM
SN12C renal
  GI50: 1.56 µM
  TGI: 2.91 µM
SNB-19 CNS
  GI50: 0.586 µM
  TGI: 1.87 µM
SR leukemia
  GI50: 0.22 µM
  TGI: 0.627 µM
SW-620 colon
  GI50: 1.02 µM
  TGI: 2.2 µM
T-47D breast
  GI50: 0.155 µM
  TGI: 0.55 µM
TK-10 renal
  GI50: 1.75 µM
  TGI: 3.15 µM
U251 glioblastoma
  GI50: 0.571 µM
  TGI: 1.89 µM
UACC-257 melanoma
  GI50: 0.257 µM
  TGI: 0.702 µM
UACC-62 melanoma
  GI50: 0.176 µM
  TGI: 0.349 µM
UO-31 renal
  GI50: 2.07 µM
  TGI: 3.96 µM
